Data from ChEMBL document CHEMBL6115036, “Exploration of membrane-active cephalosporin derivatives as potent antibacterial agents against Staphylococcus aureus biofilms and persisters” (Eur J Med Chem, 2025).
Values after ≈ are worked out from the molar mass of the structure shown. Active and inactive are the calls of the source. The calls are words filed in the database; no cut-off is given here.

Experiments:
Staphylococcus aureus [1] = test: Bactericidal activity against Staphylococcus aureus measured for 3 to 6 hrs in presence of 50% sheep plasma; assay type: functional, organism-based; settings: time 3-6 hrs
Enterococcus faecalis = test: Antimicrobial activity against Enterococcus faecalis incubated for 16 to 18 hrs by broth dilution assay; assay type: functional; settings: time 16-18 hrs
Staphylococcus aureus [2] = test: Induction of resistance development in drug-resistant Staphylococcus aureus at sub-MIC measured after 20 passages in presence of ampicillin sodium; assay type: functional, organism-based
Staphylococcus aureus [3] = test: Induction of resistance development in drug-resistant Staphylococcus aureus at sub-MIC measured after 20 passages in presence of rifampicin; assay type: functional, organism-based
Staphylococcus aureus [4] = test: Antibacterial activity against Staphylococcus aureus in presence of 50% sheep plasma; assay type: functional, organism-based
Staphylococcus aureus [5] = test: Induction of resistance development in drug-resistant Staphylococcus aureus at sub-MIC measured after 20 passages in presence of vancomycin; assay type: functional, organism-based
Staphylococcus aureus [6] = test: Induction of intracellular ROS accumulation in Staphylococcus aureus at 1 to 4 times MIC incubated overnight by DCFH-DA dye based analysis; assay type: functional, organism-based
Staphylococcus aureus [7] = test: Induction of resistance development in drug-resistant Staphylococcus aureus at sub-MIC measured after 20 passages in presence of cefuroxime sodium; assay type: functional, organism-based
Staphylococcus aureus [8] = test: Inhibition of biofilm formation in Staphylococcus aureus assessed as decrease in bacterial count at 32 times MIC incubated for 24 hrs by CLSM analysis; assay type: functional, organism-based
Escherichia coli = test: Antimicrobial activity against Escherichia coli incubated for 16 to 18 hrs by broth dilution assay; assay type: functional; settings: time 16-18 hrs
[9] = Hemolytic activity in sheep red blood cells incubated for 1 hr; assay type: toxicity, cell-based, Ovis aries, Erythrocyte
Staphylococcus aureus [10] = test: Induction of resistance development in drug-resistant Staphylococcus aureus at sub-MIC measured after 20 passages in presence of norfloxacin; assay type: functional, organism-based
Staphylococcus aureus [11] = test: Disruption of cell membrane in Staphylococcus aureus assessed as protein leakage at 32 ug/ml measured after 2 hrs by fluorescence based analysis; assay type: functional, organism-based; settings: dose 32.0 µg/ml
Staphylococcus aureus [12] = test: Antibacterial activity against Staphylococcus aureus infected in Kunming mouse model of subcutaneous abscess assessed as bacterial count in skin tissue at 10 mg/kg, sc measured after 48 hrs; assay type: functional
Staphylococcus aureus [13] = test: Antibacterial activity against rifampicin-induced persistant Staphylococcus aureus assessed as decrease in CFU at 100 times MIC measured for 10 hrs; assay type: functional, organism-based
Staphylococcus aureus [14] = test: Induction of resistance development in drug-resistant Staphylococcus aureus at sub-MIC measured after 20 passages in presence of ciprofloxacin; assay type: functional, organism-based
Staphylococcus aureus [15] = test: Disruption of cell membrane in Staphylococcus aureus assessed as nucleic acid leakage at 32 ug/ml measured after 2 hrs by fluorescence based analysis; assay type: functional, organism-based; settings: dose 32.0 µg/ml
Staphylococcus aureus [16] = test: Induction of resistance development in Staphylococcus aureus at sub-MIC measured after 20 passages; assay type: functional, organism-based
Staphylococcus aureus [17] = test: Antibacterial activity against Staphylococcus aureus assessed as effect on quiescent cells at 100 to 200 times MIC incubated for 24 hrs; assay type: functional, organism-based
Staphylococcus aureus [18] = test: Induction of resistance development in drug-resistant Staphylococcus aureus at sub-MIC measured after 20 passages in presence of levofloxacin; assay type: functional, organism-based
Staphylococcus aureus [19] = test: Antimicrobial activity against Staphylococcus aureus incubated for 16 to 18 hrs by broth dilution assay; assay type: functional; settings: time 16-18 hrs
Staphylococcus aureus [20] = test: Antibacterial activity against Staphylococcus aureus infected in Kunming mouse model of subcutaneous abscess assessed as reduction in bacterial load in skin tissue at 10 mg/kg, sc measured after 48 hrs relative to control; assay type: functional; parameters: scale not given: the % may be the effect or the level left
Staphylococcus aureus [21] = test: Antibacterial activity against Staphylococcus aureus in presence of 50% FBS; assay type: functional, organism-based
Staphylococcus aureus [22] = test: Induction of resistance development in drug-resistant Staphylococcus aureus at sub-MIC measured after 20 passages in presence of linezolid; assay type: functional, organism-based
[23] = system: Stenotrophomonas maltophilia; test: Antimicrobial activity against Stenotrophomonas maltophilia incubated for 16 to 18 hrs by broth dilution assay; assay type: functional; settings: time 16-18 hrs

With `CC(=O)OCC1=C(C(=O)O)N2C(=O)[C@@H](NC(=O)Cc3cccs3)[C@H]2SC1` [CEPHALOTHIN] as the compound, how does the Activity (Staphylococcus aureus [1]) read?
Its Activity is “Active”.

What about the MIC (Enterococcus faecalis) of the same compound?
The MIC was 32 µg/mL (≈ 80.7 µM).

And the Activity (Staphylococcus aureus [2])?
Its Activity is “inactive”.

And the Activity (Staphylococcus aureus [3])?
The Activity was “inactive”.

And the Activity (Staphylococcus aureus [4])?
Its Activity is “Active; Mic Value Of Compound In Plasma Was Equal To Mic In Mhb Medium”.

And the Activity (Staphylococcus aureus [5])?
The Activity was “inactive”.

And the Activity (Staphylococcus aureus [6])?
The Activity was “inactive”.

What about the Activity (Staphylococcus aureus [7]) of the same compound?
Its Activity is “inactive”.

And the inhibition (Staphylococcus aureus [8])?
The inhibition was “inactive”.

And the MIC (Escherichia coli)?
The MIC was 16 µg/mL (≈ 40.4 µM).

What about the HC50 at 1 h [9] of the same compound?
Its HC50 at 1 h is > 1280 µg/mL.

What about the Activity (Staphylococcus aureus [10]) of the same compound?
Its Activity is “inactive”.

And the Activity (Staphylococcus aureus [11])?
The Activity was “inactive”.

And the Activity (Staphylococcus aureus [12])?
The Activity was ~2 10^7CFU/ml.

What about the Activity (Staphylococcus aureus [13]) of the same compound?
The Activity was “inactive”.

And the Activity (Staphylococcus aureus [14])?
The Activity was “inactive”.

And the Activity (Staphylococcus aureus [15])?
Its Activity is “inactive”.

And the Activity (Staphylococcus aureus [16])?
Its Activity is “inactive”.

And the Activity (Staphylococcus aureus [17])?
The Activity was “inactive”.

And the Activity (Staphylococcus aureus [18])?
The Activity was “inactive”.

What about the MIC (Staphylococcus aureus [19]) of the same compound?
The MIC was 0.25 µg/mL (≈ 0.631 µM).

And the Activity (Staphylococcus aureus [20])?
Its Activity is 54%.

And the Activity (Staphylococcus aureus [21])?
Its Activity is “Active; Mic Value Of Compound In Serum Was Equal To Mic In Mhb Medium”.

And the Activity (Staphylococcus aureus [22])?
The Activity was “inactive”.

And the MIC [23]?
Its MIC is 16 µg/mL (≈ 40.4 µM).
